These molecules were tested on CHK2 phosphorylation (phospho-Thr68) in HCT116 cells (assay: Cellular pCHK2 assay, bleomycin-induced phosphorylation of CHK2 (phospho-Thr68), immunofluorescence high content). Details: Homo sapiens, HCT-116; HCT116 cells, 10 μM bleomycin, 4 h; read-out: IC50 (pCHK2).
Format: cell-based
Description: For the identification of substances which inhibit the phosphorylation of the protein kinase CHK2 at the amino acid threonine 68, an immunofluorescence-based “high content” analysis assay was used in HCT116 cells.
In vitro cell-based immunofluorescence assay for the identification of inhibitors of bleomycin-induced phosphorylation of CHK2 (phospho-Thr68) in the human colon carcinoma cell line HCT116:
HCT116 cells are sown out in a defined cell density in 384-well plates in culture medium (DMEM high glucose, 2 mM GlutaMax, 1 mM Na pyruvate, 10% FCS) and incubated overnight at 37° C. and 10% of CO2. On the following day, the test substances are added in a defined concentration range (1 nM to 30 μM) in combination with 10 μM bleomycin, where the concentration of the solvent DMSO is kept constant at 0.5%. After incubation for four hours at 37° C. and 10% of CO2, the cells are fixed (5 min, 4% formaldehyde in PBS), permeabilised (10 min, 0.2% Triton X-100 in PBS) and, after blocking of nonspecific binding sites (10% goat serum, 1% BSA in PBS), incubated overnight at 4° C. with a specific anti-pCHK2 antibody (cell signalling #2661). pCHK2 (Thr68) is determined using an Alexa488-labelled secondary anti-rabbit IgG antibody. Parallel staining of DNA with propidium iodide enables determination of the cell count. The pCHK2 signal is detected using a high-content imager (Molecular Devices IMX Ultra) and automatic image analysis using the MetaXpress software belonging to the instrument. The number of cell nuclei which have a pCHK2 signal above a defined background is determined.

First: COc1cc2ncc3c(c2cc1-c1cn(C)nn1)n(-c1cn(C)nc1C)c(=O)n3C [Compound Example 42, 1-(1,3-Dimethyl-1H-pyrazol-4-yl)-7-methoxy-3-methyl-8-(1-methyl-1H-1,2,3-triazol-4-yl)-1,3-dihydroimidazo-[4,5-c]quinolin-2-one]
Second: COc1cc2ncc3c(c2cc1-c1cnn(C)n1)n(-c1cn(C)nc1C)c(=O)n3C [compound 102, 1-(1,3-Dimethyl-1H-pyrazol-4-yl)-7-methoxy-3-methyl-8-(2-methyl-2H-1,2,3-triazol-4-yl)-1,3-dihydroimidazo-[4,5-c]quinolin-2-one]
The IC50 of the first is higher: 0.2 to 1 µM for the first, less than 0.2 µM for the second.

`COc1cc2ncc3c(c2cc1-c1cnn(C)c1)n(-c1ccc(C#N)cn1)c(=O)n3C` [Compound Example 48, 6-[7-Methoxy-3-methyl-8-(1-methyl-1H-pyrazol-4-yl)-2-oxo-2,3-dihydroimidazo-[4,5-c]quinolin-1-yl]-nicotinonitrile] and `COc1cc2ncc3c(c2cc1-c1cnn(C)c1)n(-c1ccc(F)cn1)c(=O)n3C` [Compound Example 50, 1-(5-Fluoropyridin-2-yl)-7-methoxy-3-methyl-8-(1-methyl-1H-pyrazol-4-yl)-1,3-dihydroimidazo[4,5-c]-quinolin-2-one] fall in the same range of IC50: 0.2 to 1 µM for the first, 0.2 to 1 µM for the second.

`COc1cc2ncc3c(c2cc1-c1cnn(C)c1)n(-c1ncccn1)c(=O)n3C` [Compound Example 52, 7-Methoxy-3-methyl-8-(1-methyl-1H-pyrazol-4-yl)-1-pyrimidin-2-yl-1,3-dihydro-imidazo[4,5-c]quinolin-2-one] and `COc1cc2ncc3c(c2cc1-c1cnn(C)c1)n(-c1ccccn1)c(=O)n3C` [Compound Example 56, 7-Methoxy-3-methyl-8-(1-methyl-1H-pyrazol-4-yl)-1-pyridin-2-yl-1,3-dihydro-imidazo[4,5-c]quinolin-2-one] fall in the same range of IC50: 0.2 to 1 µM for the first, 0.2 to 1 µM for the second.

`COc1cc2ncc3c(c2cc1-c1cn(C)nn1)n(-c1c(C)cncc1F)c(=O)n3C` [compound 63, 1-(3-Fluoro-5-methylpyridin-4-yl)-7-methoxy-3-methyl-8-(1-methyl-1H-1,2,3-triazol-4-yl)-1,3-dihydroimidazo-[4,5-c]quinolin-2-one] and `COc1cc2ncc3c(c2cc1-c1cn(C)nn1)n(-c1c(F)cncc1OC)c(=O)n3C` [compound 131, 1-(3-Fluoro-5-methoxy-pyridin-4-yl)-7-methoxy-3-methyl-8-(1-methyl-1H-1,2,3-triazol-4-yl)-1,3-dihydroimidazo[4,5-c]-quinolin-2-one] fall in the same range of IC50: 0.2 to 1 µM for the first, 0.2 to 1 µM for the second.

`COc1cc2ncc3c(c2cc1-c1cn(C)nn1)n(-c1ccncc1F)c(=O)n3C` [compound 64, 1-(3-Fluoropyridin-4-yl)-7-methoxy-3-methyl-8-(1-methyl-1H-1,2,3-triazol-4-yl)-1,3-dihydroimidazo-[4,5-c]quinolin-2-one] and `CCc1cncc(F)c1-n1c(=O)n(C)c2cnc3cc(OC)c(-c4cnn(C)n4)cc3c21` [compound 112, 1-(3-Ethyl-5-fluoropyridin-4-yl)-7-methoxy-3-methyl-8-(2-methyl-2H-1,2,3-triazol-4-yl)-1,3-dihydroimidazo-[4,5-c]quinolin-2-one] fall in the same range of IC50: 0.2 to 1 µM for the first, 0.2 to 1 µM for the second.

First: COc1cc2ncc3c(c2cc1-c1cc(N)n[nH]1)n(-c1ncccc1F)c(=O)n3C [compound 65, 8-(3-Amino-1H-pyrazol-5-yl)-1-(3-fluoro-2-pyridyl)-7-methoxy-3-methyl-imidazo-[4,5-c]quinolin-2-one]
Second: COc1cnc(-n2c(=O)n(C)c3cnc4cc(OC)c(-c5ccn[nH]5)cc4c32)c(F)c1 [compound 109, 1-(3-Fluoro-5-methoxy-pyridin-2-yl)-7-methoxy-3-methyl-8-(2H-pyrazol-3-yl)-1,3-dihydroimidazo[4,5-c] quinolin-2-one]
The IC50 of the first is higher: 0.2 to 1 µM for the first, less than 0.2 µM for the second.

First: COc1cc2ncc3c(c2cc1-c1cnn(C)c1)n(-c1ccc2ccccc2n1)c(=O)n3C [compound 68, 7-Methoxy-3-methyl-8-(1-methyl-1H-pyrazol-4-yl)-1-quinolin-2-yl-1,3-dihydro-imidazo[4,5-c]quinolin-2-one]
Second: COc1cc2ncc3c(c2cc1-c1cnn(C)c1)n(-c1ccc2cc[nH]c2n1)c(=O)n3C [compound 69, 7-Methoxy-3-methyl-8-(1-methyl-1H-pyrazol-4-yl)-1-(1H-pyrrolo[2,3-b]pyridin-6-yl)1,3-dihydroimidazo-[4,5-c]quinolin-2-one]
The IC50 of the first is higher: 1 to 2 µM for the first, 0.2 to 1 µM for the second.

First: COc1cc2ncc3c(c2cc1-c1cnn(C)n1)n(-c1ncc(F)cc1F)c(=O)n3C [compound 101, 1-(3,5-Difluoropyridin-2-yl)-7-methoxy-3-methyl-8-(2-methyl-2H-1,2,3-triazol-4-yl)-1,3-dihydroimidazo-[4,5-c]quinolin-2-one]
Second: COc1cc2ncc3c(c2cc1-c1cnn(C)n1)n(-c1c(F)cncc1OC)c(=O)n3C [compound 127, 1-(3-Fluoro-5-methoxy-pyridin-4-yl)-7-methoxy-3-methyl-8-(2-methyl-2H-1,2,3-triazol-4-yl)-1,3-dihydroimidazo[4,5-c] quinolin-2-one]
The IC50 of the first is lower: less than 0.2 µM for the first, 0.2 to 1 µM for the second. The first is the more potent here.

`CCn1cc(-c2cc3c(cc2OC)ncc2c3n(-c3ccncc3OC)c(=O)n2C)cn1` [compound 104, 8-(1-Ethyl-1H-pyrazol-4-yl)-7-methoxy-1-(3-methoxy-pyridin-4-yl)-3-methyl-1,3-dihydroimidazo[4,5-c] quinolin-2-one] and `CCn1cc(-c2cc3c(cc2OC)ncc2c3n(-c3ncc(OC)cc3F)c(=O)n2C)cn1` [compound 111, 8-(1-Ethyl-1H-pyrazol-4-yl)-1-(3-fluoro-5-methoxy-pyridin-2-yl)-7-methoxy-3-methyl-1,3-dihydroimidazo-[4,5-c]quinolin-2-one] fall in the same range of IC50: 0.2 to 1 µM for the first, 0.2 to 1 µM for the second.

`COc1cnc(-n2c(=O)n(C)c3cnc4cc(OC)c(-c5cn(C)nc5C)cc4c32)c(F)c1` [compound 106, 8-(1,3-Dimethyl-1H-pyrazol-4-yl)-1-(3-fluoro-5-methoxypyridin-2-yl)-7-methoxy-3-methyl-1,3-dihydroimidazo[4,5-c]-quinolin-2-one] and `COc1cnc(-n2c(=O)n(C)c3cnc4cc(OC)c(-c5cnn[nH]5)cc4c32)c(F)c1` [compound 128, 1-(3-Fluoro-5-methoxy-pyridin-2-yl)-7-methoxy-3-methyl-8-(3H-1,2,3-triazol-4-yl)-1,3-dihydroimidazo-[4,5-c]quinolin-2-one] fall in the same range of IC50: 0.2 to 1 µM for the first, 0.2 to 1 µM for the second.

`COc1cc2ncc3[nH]c(=O)n(-c4ncc(F)cc4F)c3c2cc1-c1cnn(C)c1` [compound 107, 1-(3,5-Difluoropyridin-2-yl)-7-methoxy-8-(1-methyl-1H-pyrazol-4-yl)-1,3-dihydro-imidazo[4,5-c]quinolin-2-one] and `COc1cnc(-n2c(=O)[nH]c3cnc4cc(OC)c(-c5cnn(C)c5)cc4c32)c(F)c1` [compound 115, 1-(3-Fluoro-5-methoxy-pyridin-2-yl)-7-methoxy-8-(1-methyl-1H-pyrazol-4-yl)-1,3-dihydroimidazo[4,5-c]-quinolin-2-one] fall in the same range of IC50: 0.2 to 1 µM for the first, 0.2 to 1 µM for the second.

`CCOc1cnc(-n2c(=O)n(C)c3cnc4cc(OC)c(-c5cnn(C)c5)cc4c32)c(F)c1` [compound 113, 1-(5-Ethoxy-3-fluoropyridin-2-yl)-7-methoxy-3-methyl-8-(1-methyl-1H-pyrazol-4-yl)-1,3-dihydroimidazo[4,5-c]-quinolin-2-one] and `COc1cc2ncc3c(c2cc1-c1cnn(C)c1)n(-c1ncc(Cl)cc1F)c(=O)n3C` [compound 119, 1-(5-Chloro-3-fluoropyridin-2-yl)-7-methoxy-3-methyl-8-(1-methyl-1H-pyrazol-4-yl)-1,3-dihydroimidazo[4,5-c]-quinolin-2-one] cannot be ordered by IC50: less than 0.2 µM for the first, less than 0.2 µM for the second.

`COc1cc2ncc3[nH]c(=O)n(-c4c(F)cncc4OC)c3c2cc1-c1cnn(C)c1` [compound 116, 1-(3-Fluoro-5-methoxy-pyridin-4-yl)-7-methoxy-8-(1-methyl-1H-pyrazol-4-yl)-1,3-dihydroimidazo[4,5-c]-quinolin-2-one] and `COc1cc2ncc3[nH]c(=O)n(-c4c(F)cncc4OC)c3c2cc1-c1cn(C)nc1C` [compound 129, 8-(1,3-Dimethyl-1H-pyrazol-4-yl)-1-(3-fluoro-5-methoxy-pyridin-4-yl)-7-methoxy-1,3-dihydroimidazo[4,5-c]-quinolin-2-one] fall in the same range of IC50: 1 to 2 µM for the first, 1 to 2 µM for the second.

`COc1cc2ncc3c(c2cc1-c1ccn[nH]1)n(-c1c(F)cncc1OC)c(=O)n3C` [compound 124, 1-(3-Fluoro-5-methoxy-pyridin-4-yl)-7-methoxy-3-methyl-8-(2H-pyrazol-3-yl)-1,3-dihydroimidazo[4,5-c] quinolin-2-one] and `COc1cc2ncc3c(c2cc1-c1ccc2nc(C)[nH]c2c1)n(-c1cn(C)nc1C)c(=O)n3C` [compound 132, 1-(1,3-Dimethyl-1H-pyrazol-4-yl)-7-methoxy-3-methyl-8-(2-methyl-3H-benzo-imidazol-5-yl)-1,3-dihydro-imidazo[4,5-c]quinolin-2-one] fall in the same range of IC50: 0.2 to 1 µM for the first, 0.2 to 1 µM for the second.

For `CCn1cc(-n2c(=O)n(C)c3cnc4cc(OC)c(-c5cnn(C)c5)cc4c32)c(C)n1` [compound 130, 1-(1-Ethyl-3-methyl-1H-pyrazol-4-yl)-7-methoxy-3-methyl-8-(1-methyl-1H-pyrazol-4-yl)-1,3-dihydro-imidazo[4,5-c]quinolin-2-one], the IC50 was 0.2 to 1 µM.

Source: patent US10745399B2 (priority 2015, dated 2020)
